Measurements as given in ChEMBL document CHEMBL3751696, “Mollisolactones A and B, novel dinormonoterpenes from the soft coral Sinularia mollis” (2016).
Values after ≈ are worked out from the molar mass of the structure shown. Active and inactive are the calls of the source. The rule behind the calls is not given here.

Legend:
HT-29 = assay: Cytotoxicity against human HT-29 cells by MTT assay; assay type: functional; conditions: read-out: ED50 (the source's name)
Human betaherpesvirus 5 = assay: Antiviral activity against Human cytomegalovirus at 50 ug/ml; assay type: functional, organism-based
A549 = assay: Cytotoxicity against human A549 cells by MTT assay; assay type: functional; conditions: read-out: ED50 (the source's name)
P388 = assay: Cytotoxicity against mouse P388 cells by MTT assay; assay type: functional; conditions: read-out: ED50 (the source's name)

**Q.** What does the source list for CC(=O)CC1C=C(C)C(=O)O1 (stereo not drawn)?
**A.** EC50 (HT-29): 58 µg/mL (≈ 376 µM); Activity (Human betaherpesvirus 5): inactive; EC50 (A549): 56 µg/mL (≈ 363 µM); EC50 (P388): 52 µg/mL (≈ 337 µM)

**Q.** CC(=O)CC1OC(=O)C=C1C (stereo not drawn) was tested. Which EC50 (HT-29) did it give?
**A.** The EC50 was 51 µg/mL (≈ 331 µM).

**Q.** And the Activity (Human betaherpesvirus 5)?
**A.** The Activity was “inactive”.

**Q.** And the EC50 (A549)?
**A.** The EC50 was 53 µg/mL (≈ 344 µM).

**Q.** What about the EC50 (P388) of the same compound?
**A.** Its EC50 is 56 µg/mL (≈ 363 µM).
